One assay concerns the target T1, human NLRP3 (Homo sapiens (Human), UniProt Q96P20). The experiment in a line: Human PBMC NLRP3 Assay (LPS priming, ATP stimulation, cytokine measurement). In kind it is cell-based. The conditions noted are these: read-out: PBMC IC50.
T1 sequence (Q96P20 whole entry): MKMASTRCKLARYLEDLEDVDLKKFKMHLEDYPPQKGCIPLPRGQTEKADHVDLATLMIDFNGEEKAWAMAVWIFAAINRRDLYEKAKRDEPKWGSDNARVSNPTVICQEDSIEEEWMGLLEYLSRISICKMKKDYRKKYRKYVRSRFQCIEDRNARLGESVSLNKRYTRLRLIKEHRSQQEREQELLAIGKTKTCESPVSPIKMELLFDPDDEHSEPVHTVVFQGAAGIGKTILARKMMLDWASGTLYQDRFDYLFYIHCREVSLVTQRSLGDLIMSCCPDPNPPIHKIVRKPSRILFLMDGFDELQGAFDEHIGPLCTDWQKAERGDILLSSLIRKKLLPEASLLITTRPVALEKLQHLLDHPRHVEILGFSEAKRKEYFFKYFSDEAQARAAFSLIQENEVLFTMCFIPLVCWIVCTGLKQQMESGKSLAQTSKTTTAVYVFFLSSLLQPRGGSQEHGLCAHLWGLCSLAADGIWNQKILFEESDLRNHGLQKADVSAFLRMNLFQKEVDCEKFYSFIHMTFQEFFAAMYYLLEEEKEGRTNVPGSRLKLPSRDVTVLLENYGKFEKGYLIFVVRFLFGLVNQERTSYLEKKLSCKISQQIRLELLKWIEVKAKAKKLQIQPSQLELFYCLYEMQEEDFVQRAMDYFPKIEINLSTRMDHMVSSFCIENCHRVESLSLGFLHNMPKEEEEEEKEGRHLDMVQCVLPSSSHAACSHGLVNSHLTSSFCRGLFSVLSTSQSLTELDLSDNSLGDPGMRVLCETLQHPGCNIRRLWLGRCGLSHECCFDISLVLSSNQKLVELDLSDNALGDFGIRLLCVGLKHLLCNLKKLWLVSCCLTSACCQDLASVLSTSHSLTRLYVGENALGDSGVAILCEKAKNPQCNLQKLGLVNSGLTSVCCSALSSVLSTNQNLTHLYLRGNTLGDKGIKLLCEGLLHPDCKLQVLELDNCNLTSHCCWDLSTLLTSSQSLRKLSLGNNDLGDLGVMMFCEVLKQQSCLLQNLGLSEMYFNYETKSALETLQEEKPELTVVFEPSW
For `O=C(N[C@@H]1CCCN(c2ccccc2)C1)c1ccc(Cl)cc1` [Comparative Example J1, (R)-4-chloro-N-(1-phenylpiperidin-3-yl)benzamide, reference compound], the IC50 is greater than 100 µM.
Regarding `O=C(N[C@@H]1CCCN(c2nnn[nH]2)C1)c1ccc(Cl)cc1` [Comparative Example G, (R)-N-(1-(1H-tetrazol-5-yl)piperidin-3-yl)-4-chlorobenzamide, reference compound], the IC50 was greater than 100 µM.

For a further assay, the target named is T1, human NLRP3. The experiment in a line: Scintillation Proximity (SPA) NLRP3 Assay: displacement of 3H-MCC950. Conditions: SPA IC50, displacement of 3H-MCC950. In kind it is binding.
The compound `C[C@H]1C[C@H]2CC[C@@H]([C@@H](NC(=O)C3(c4ccc(C(F)(F)F)cc4)CC3)C1)N2c1nnn[nH]1` [104H*, N-((1S,2S,4R,6R)-4-methyl-9-(1H-tetrazol-5-yl)-9-azabicyclo[4.2.1]nonan-2-yl)-1-(4-(trifluoromethyl)phenyl)cyclopropane-1-carboxamide] had an IC50 of 50 to 100 µM.
For the compound `C[C@@H]1C[C@@H]2CC[C@H]([C@@H](NC(=O)C3(c4ccc(C(F)(F)F)cc4)CC3)C1)N2c1nnn[nH]1` [104F*, N-((1R,2S,4S,6S)-4-methyl-9-(1H-tetrazol-5-yl)-9-azabicyclo[4.2.1]nonan-2-yl)-1-(4-(trifluoromethyl)phenyl)cyclopropane-1-carboxamide], the IC50 fell in the range of 10 to 50 µM.
Compound `O=C(N[C@@H]1CCC[C@H]2CC[C@@H]1N2c1nnn[nH]1)C1(c2ccc(C(F)(F)F)cc2O)CC1` [88C*, N-((1S,2R,6S)-9-(1H-tetrazol-5-yl)-9-azabicyclo[4.2.1]nonan-2-yl)-1-(2-hydroxy-4-(trifluoromethyl)phenyl)cyclopropane-1-carboxamide] had an IC50 of 50 to 100 µM.

The same assay, now with this note: displacement of 3H-MCC950; read-out: SPA IC50.
Take `C[C@H]1CCN(c2nnn[nH]2)C[C@@H](NC(=O)C2(c3ccc(OC(F)F)cc3)CC2)C1` (single isomer, unassigned) [58D*]: the IC50 lay within 1 to 10 µM.
On to `Cc1ccc(C2(C(=O)N[C@H]3C[C@H](C)CCN(c4nnn[nH]4)C3)CC2)c(O)c1` (single isomer, unassigned) [67B*], for which the IC50 is less than 1 µM.
Take `CC1(C)C[C@H](NC(=O)C2(c3ccc(Cl)cc3O)CC2)CN(c2nnn[nH]2)C1` (single isomer, unassigned) [42B*]: the IC50 fell in the range of 10 to 50 µM.
Still for that read-out and setting: for `C[C@H]1CCN(c2nnn[nH]2)C[C@@H](NC(=O)C2(c3ccc(Cl)nc3O)CC2)C1` (single isomer, unassigned) [100D*] the value was greater than 100 µM; for `C[C@H]1CCN(c2nnn[nH]2)C[C@H](NC(=O)C2(c3ccc(C(F)(F)F)cc3F)CC2)C1` (single isomer, unassigned) [68C*], greater than 100 µM.
As to `Cc1ccc(C2(C(=O)N[C@@H]3C[C@@H](C)CCN(c4nnn[nH]4)C3)CC2)c(O)c1F` (single isomer, unassigned) [22C*, 1-(3-fluoro-2-hydroxy-4-methylphenyl)-N-(5-methyl-1-(1H-tetrazol-5-yl)azepan-3-yl)cyclopropane-1-carboxamide], the IC50 lay in the range of 10 to 50 µM.
`C[C@H]1C[C@H](NC(=O)C2(c3ccc(C(F)(F)F)cc3F)CC2)[C@@H]2CC[C@H]1N2c1nnn[nH]1` [84D*, 1-(2-fluoro-4-(trifluoromethyl)phenyl)-N-((1S,2S,4S,5R)-4-methy1-8-(1H-tetrazol-5-yl)-8-azabicyclo[3.2.1]octan-2-yl)cyclopropane-1-carboxamide]: the IC50 is greater than 100 µM.
Same read-out and setting: for `C[C@@H]1C[C@H](NC(=O)C2(c3ccc(SC(F)F)cc3)CC2)[C@H]2CC[C@@H]1N2c1nnn[nH]1` [85B*, 1-(4-((difluoromethyl)thio)phenyl)-N-((1R,2S,4R,5S)-4-methyl-8-(1H-tetrazol-5-yl)-8-azabicyclo[3.2.1]octan-2-yl)cyclopropane-1-carboxamide] the value was 10 to 50 µM.
Consider `C[C@@H]1C[C@@H](NC(=O)C2(c3ccc(Cl)cc3)CC2)CN(c2nnn[nH]2)C1` [Compound 46C, 1-(4-chlorophenyl)-N-[(3R,5R)-5-methyl-1-(1H-tetrazol-5-yl)-3-piperidyl]cyclopropanecarboxamide], for which the IC50 lay within 10 to 50 µM.
In the case of `C[C@H]1CCN(c2nnn[nH]2)C[C@@H](NC(=O)C2(c3ccc(C(F)(F)F)c(F)c3)CC2)C1` (single isomer, unassigned) [66D*], the IC50 was 10 to 50 µM.
Take `C[C@H]1CCN(c2nnn[nH]2)C[C@@H](NC(=O)C2(c3c(F)cc(Cl)cc3F)CC2)C1` (single isomer, unassigned) [72D*]: the IC50 was 10 to 50 µM.
Same read-out and setting: in the case of `C[C@@H]1CC[C@@H](NC(=O)C2(c3ccc(C4CC4)cc3O)CC2)CN(c2nnn[nH]2)C1` (single isomer, unassigned) [91C*] it was 50 to 100 µM.
With `C[C@H]1C[C@@H](NC(=O)C2(c3ccc(C(F)(F)F)nc3O)CC2)CN(c2nnn[nH]2)C1` [Compound 24A, 1-(2-hydroxy-6-(trifluoromethyl)pyridin-3-yl)-N-((3R,5S)-5-methyl-1-(1H-tetrazol-5-yl)piperidin-3-yl)cyclopropane-1-carboxamide], the half-inhibitory concentration (IC50) lay in the range of 1 to 10 µM.
As to `O=C(N[C@@H]1CN(c2nnn[nH]2)CCC(F)(F)C1)C1(c2ccc(Cl)cc2)CC1` (single isomer, unassigned) [53B*], the IC50 lay in the range of 50 to 100 µM.
In the case of `C[C@H]1CCN(c2nnn[nH]2)C[C@H](NC(=O)C2(c3ccc(C(F)(F)F)cc3)CC2)C1` (single isomer, unassigned) [61B*], the IC50 lay within 1 to 10 µM.
Turning to `C[C@H]1CCN(c2nnn[nH]2)C[C@@H](NC(=O)C2(c3cc(F)c(Cl)cc3O)CC2)C1` (single isomer, unassigned) [29D*, 1-(4-chloro-5-fluoro-2-hydroxyphenyl)-N-(5-methyl-1-(1H-tetrazol-5-yl)azepan-3-yl)cyclopropane-1-carboxamide], the IC50 is 10 to 50 µM.
`C[C@@H]1CCN(c2nnn[nH]2)C[C@@H](NC(=O)C2(c3ccc(C4CCC4)cc3)CC2)C1` (single isomer, unassigned) [8B*, 1-(4-cyclobutylphenyl)-N-(5-methyl-1-(1H-tetrazol-5-yl)azepan-3-yl)cyclopropane-1-carboxamide]: the IC50 was in the range of 10 to 50 µM.
For the compound `O=C(N[C@H]1CC[C@@H]2CC[C@H]1N2c1nnn[nH]1)C1(c2ccc(OC(F)(F)F)cc2O)CC1` [78B*, N-((1R,2S,5R)-8-(1H-tetrazol-5-yl)-8-azabicyclo[3.2.1]octan-2-yl)-1-(2-hydroxy-4-(trifluoromethoxy)phenyl)cyclopropane-1-carboxamide], the IC50 lay within 1 to 10 µM.
Take `C[C@@]1(NC(=O)C2(c3ccc(Cl)cc3)CC2)CCCN(c2nnn[nH]2)C1` (single isomer, unassigned) [11A*, 1-(4-chlorophenyl)-N-(3-methyl-1-(1H-tetrazol-5-yl)piperidin-3-yl)cyclopropane-1-carboxamide]: the IC50 is greater than 100 µM.
Same read-out and setting: in the case of `Cc1ccc(C2(C(=O)N[C@H]3C[C@H](C)CCN(c4nnn[nH]4)C3)CC2)cc1` (single isomer, unassigned) [71B*] it was 50 to 100 µM.
For the compound `C[C@H]1CCN(c2nnn[nH]2)C[C@@H](NC(=O)C2(c3ccc(C(F)(F)F)c(F)c3O)CC2)C1` (single isomer, unassigned) [31D*, 1-(3-fluoro-2-hydroxy-4-(trifluoromethyl)phenyl)-N-(5-methyl-1-(1H-tetrazol-5-yl)azepan-3-yl)cyclopropane-1-carboxamide], the IC50 lay in the range of 1 to 10 µM.
As for `C[C@@H]1C[C@H](NC(=O)C2(c3ccc(C4CC4(F)F)cc3)CC2)[C@H]2CC[C@@H]1N2c1nnn[nH]1` (single isomer, unassigned) [37B*], the IC50 lay within 10 to 50 µM.
On to `C[C@H]1C[C@@H](NC(=O)C2(c3ccc(SC(F)F)cc3)CC2)[C@@H]2CC[C@H]1N2c1nnn[nH]1` [85C*, 1-(4-((difluoromethyl)thio)phenyl)-N-((1S,2R,4S,5R)-4-methyl-8-(1H-tetrazol-5-yl)-8-azabicyclo[3.2.1]octan-2-yl)cyclopropane-1-carboxamide], for which the IC50 was greater than 100 µM.
`O=C(N[C@H]1CN(c2nnn[nH]2)CC[C@@H]1F)C1(c2ccc(Cl)cc2)CC1` [Compound 50C, 1-(4-chlorophenyl)-N-[(3S,4S)-4-fluoro-1-(1H-tetrazol-5-yl)-3-piperidyl]cyclopropanecarboxamide]: the IC50 is 10 to 50 µM.
For the compound `C[C@@H]1CC[C@@H](NC(=O)C2(c3ccc(Cl)cc3)CC2)CN1c1nnn[nH]1` [Compound 41C, 1-(4-chlorophenyl)-N-[(3R,6R)-6-methyl-1-(1H-tetrazol-5-yl)-3-piperidyl]cyclopropanecarboxamide], the IC50 was greater than 100 µM.
The same measure, in the same setting: in the case of `C[C@@H]1CCN(c2nnn[nH]2)C[C@@H](NC(=O)C2(c3ccc(C(F)(F)F)cc3F)CC2)C1` (single isomer, unassigned) [68B*] it was 1 to 10 µM; in that of `C[C@H]1C[C@H](NC(=O)C2(c3ccc(Cl)cc3)CC2)[C@@H]2CC[C@H]1N2c1nnn[nH]1` [80D*, 1-(4-chlorophenyl)-N-((1S,2S,4S,5R)-4-methyl-8-(1H-tetrazol-5-yl)-8-azabicyclo[3.2.1]octan-2-yl)cyclopropane-1-carboxamide], 50 to 100 µM; in that of `C[C@@H]1CCN(c2nnn[nH]2)C[C@@H](NC(=O)C2(c3ccc(C(F)F)cc3)CC2)C1` (single isomer, unassigned) [5B*, 1-(4-(difluoromethyl)phenyl)-N-(5-methyl-1-(1H-tetrazol-5-yl)azepan-3-yl)cyclopropane-1-carboxamide], 10 to 50 µM.
With `C[C@H]1CCN(c2nnn[nH]2)C[C@H](NC(=O)C2(c3ccc(C(F)(F)F)c(F)c3)CC2)C1` (single isomer, unassigned) [66C*], the IC50 is greater than 100 µM.
With `C[C@@H]1CCN(c2nnn[nH]2)C[C@@H](NC(=O)C2(c3ccc(C(F)(F)F)c(F)c3)CC2)C1` (single isomer, unassigned) [66B*], the IC50 is 1 to 10 µM.
As to `C[C@@H]1CCN(c2nnn[nH]2)C[C@@H](NC(=O)C2(c3ccc(Cl)cc3)CC2)C1` (single isomer, unassigned) [12B*, 1-(4-chlorophenyl)-N-(5-methyl-1-(1H-tetrazol-5-yl)azepan-3-yl)cyclopropane-1-carboxamide], the IC50 lay within 10 to 50 µM.
The same measure, in the same setting: in the case of `C[C@H]1C[C@H](NC(=O)C2(c3ccc(C4CC4)cc3)CC2)[C@@H]2CC[C@H]1N2c1nnn[nH]1` [81D*] it was 10 to 50 µM.
